Results as given in patent US7026330B2, “Methods for treatment of acute lymphocytic leukemia” (The Children's Hospital of Philadelphia, priority 2002, dated 2006).
“Also recorded” adds a separate entry of the source. Read-outs that look alike come from different tables or passages of the source.

Assays:
ALL cell lines = test: RAD001 growth suppression in ALL cells in vitro; format: cell-based
[1] = test system: Eμ-RET+ mice with advanced leukemia; test: RAD001 in the ALL mouse model; format: in vivo; conditions: daily oral administration
Excerpt: RAD001 inhibits growth >50–90% in ALL cell lines. Daily oral administration of RAD001 extends survival almost 4 fold in Eμ-RET+ mice with advanced leukemia (high white blood count, large nodal masses, and massive hepatosplenomegaly) as compared to untreated littermates.

[2] = test system: steroid refractory severe acute GVHD; conditions: cited from earlier work
[3] = cited from earlier work; for trough concentration: Phase III studies with cyclosporine, steroid, or both; for mean time-to-peak concentration: oral
pro-B ALL cell line T309 = test: Apoptosis assay (Annexin V-FITC, flow cytometry); format: cell-based, mouse; conditions: 72 hours, baseline 24%
Procedure: Apoptosis Assay. […] Levels of exposed phosphotidylserine on viable cells were measured using the ApoAlert Annexin V detection kit (Clontech, Palo Alto, Calif.). Cells were incubated with FITC-conjugated Annexin V, and log fluorescence intensity was analyzed by flow cytometry using a FACScan cytometer (Becton-Dickinson, Franklin Lakes, N.J.).

[4] = test system: Eμ-RET+ transgenic mouse derived cell lines, #83, T309, #289, #420.2; test: MTT proliferation assay, ALL cell lines; format: cell-based
Procedure: (§1) Cell Preparation and Cell Culture Conditions. A single cell suspension of bone marrow or lymph nodes from leukemic Eμ-RET+ transgenic mice was prepared [Wasserman, 1998]. These ALL cells were maintained at 37° C. with 5% CO2 in RPMI-1640, L-Glutamine, 10 mM HEPES, 1 mM Sodium Pyruvate, 100 μM non-essential amino acids, 100 U/ml penicillin, 100 μg/ml streptomycin (GibCo-BRL, Rocksville, Md.), 50 μM 2-mercaptoethanol (FisherScientific, Fair Lawn, N.J.)+10% Fetal Calf Serum (HyClone, Logan, Utah)+10% Calf Serum (HyClone, Logan Utah) (C20 media) with 10 U/ml IL-7. Cell surface markers on these cells were determined by flow cytometry as described previously [Wasserman, 1998], and the phenotype was stable in culture over time.
(§2) Proliferation Assays. Cells were cultured in IL-7-free C20 media for 24 hours. […] Cell growth was assayed using methyl-thiazole-tetrazolin (MTT) [Mosmann, 1983]. After removing 50 μl media from each well, 10 μl MTT, 5 mg/ml, (Sigma, St. Louis, Mo.) was added to each sample and incubated for 4 hours. 150 μl 1% HCL/Isopropanol was added to each sample and mixed vigorously until all crystals dissolved. Absorbance was measured at OD595 using microplate spectrophotometer (Benchmark Microplate Reader, Bio-Rad Laboratories, Hercules, Calif.). Results are expressed as mean of absolute absorbance numbertreated sample divided by the mean of absolute absorbance numbercontrol sample. Results >1 indicates proliferation whereas results <1 indicates growth inhibition.

[5] = test system: Eμ-RET+ transgenic mice with overt disease; conditions: for Plt, mean / WBC, mean / Weight, mean: treated group
Procedure: Mice were assessed three times a week for overt signs of disease (enlarged lymph nodes, organomegaly, and anemia). […] Prior to randomization, easily accessible enlarged lymph nodes were biopsied for cell culture and further in vitro study. Peripheral blood for CBC with differential (HemaVet 850FS, Cell Technologies, Oxford, Conn.) and pK studies was obtained by eye bleeding at days 0, 7, 14 and then every other week until death. Peripheral blood as well as single cell suspension from bone marrow, lymph nodes and/or spleen was obtained at death. Weights were monitored three times a week. […] Animals were sacrificed when moribund. Event free survival (EFS) was determined from onset of disease until death, and analyzed using STATA 7.0 (STATA Corporation, College Park, Tex.).

[6] = cited from earlier work
A20 mature B cell line = test: Proliferation of mature B cell line A20; format: cell-based; conditions: data not shown
Procedure: as §2

cell line #83 = test: MTT proliferation assay, cell line #83; format: cell-based, mouse; conditions: increasing rmIL-7 0–30 U/ml, no stroma, 4–5 days
Procedure: as §1
as §2, with “150 μl 1% HCL/Isopropanol was added to each sample and mixed vigorously until all crystals dissolved.” left out, “Results >1 indicates proliferation whereas results <1 indicates growth inhibition.” left out

cell line #420.2 = test: MTT proliferation assay, cell line #420.2; format: cell-based, mouse; conditions: increasing rmIL-7 0–30 U/ml, no stroma, 4–5 days
Procedure: as §1
as §2, with “150 μl 1% HCL/Isopropanol was added to each sample and mixed vigorously until all crystals dissolved.” left out, “Results >1 indicates proliferation whereas results <1 indicates growth inhibition.” left out

cell line T309 = test: MTT proliferation assay, cell line T309; format: cell-based, mouse; conditions: increasing rmIL-7 0–30 U/ml, no stroma, 4–5 days
Procedure: as §1
as §2, with “150 μl 1% HCL/Isopropanol was added to each sample and mixed vigorously until all crystals dissolved.” left out, “Results >1 indicates proliferation whereas results <1 indicates growth inhibition.” left out

YES proto-oncogene = test: mRNA expression in ALL cells (Affymetrix MG-U74Av4 Genechips); format: cell-based; conditions: addition of IL-7
Excerpt: We found the most profound change in expression in the YES proto-oncogene, a member of the src family of kinases. […] However, the ability of IL-7 to reverse rapamycin-induced growth inhibition may involve other target proteins downstream of p70S6 kinase, such as p27kip1 or cdk2.

ALL cell line #289 = test: MTT proliferation assay, cell line #289; format: cell-based, mouse
Procedure: as §1, §2

[7] = test system: phosphor-p70S6 kinase (Thr389); test: Immunoblotting of p70S6 kinase in ALL cell line #289; format: cell-based, mouse; conditions: 4 hours
Procedure: Crude Lysate Preparation and Immunoblotting. […] After harvesting, cells were washed with ice cold PBS and then lysed in 100 μl of 1% Triton-X containing protease and phosphatase inhibitors (1 μg/ml apoprotinin, 1 μg/ml leupeptin, 1 mM […], 1 mM NaF, 0.1 mM AEBSF) at 4° C. for 5 minutes. Crude lysates were obtained by centrifugation (12,000 rpm at 4° C. for 20 minutes). Protein concentrations were determined using Bio-Rad Protein assay kit (Bio-Rad Laboratories, Hercules, Calif.). Equal amounts of protein were analyzed by 4–12% Tris-Bis gel electrophoresis and transferred to PVDF membranes (NuPage Invitrogen, Carlsbad, Calif.). Specific proteins were detected with anti-Phosphor-p70S6 kinase (Thr389) and anti-total p70S6 kinase antibodies (Cell Signaling Technologies, Beverly, Mass.) diluted in TTBS (1:500). Immunodetection was performed with horseradish peroxidase-conjugated anti-rabbit IgG and then developed by chemoluminescence (Amersham Pharmacia Biotech, Piscataway, N.J.). Immunoblots were stripped for reprobing by incubating immunoblots in stripping buffer (100 mM 2-mercaptoethanol, 2% sodium dodecyl sulphate, 62.5 mM Tris-HCl pH 6.7) for 30 minutes in 37° C. water bath with occasional agitation. […] Specific proteins were immunoblotted and detected as above.

#781 cell line = test: MTT proliferation assay, cell line #781; format: cell-based, mouse; conditions: increasing rmIL-7 0–30 U/ml, no stroma, 4–5 days
Procedure: as §1
as §2, with “150 μl 1% HCL/Isopropanol was added to each sample and mixed vigorously until all crystals dissolved.” left out, “Results >1 indicates proliferation whereas results <1 indicates growth inhibition.” left out

[8] = Mus musculus, 72 h, read-out: inhibition of growth

## CO[C@H]1C[C@@H]2CC[C@@H](C)[C@@](O)(O2)C(=O)C(=O)N2CCCC[C@H]2C(=O)O[C@H]([C@H](C)C[C@@H]2CC[C@@H](OCCO)[C@H](OC)C2)CC(=O)[C@H](C)/C=C(\C)[C@@H](O)[C@@H](OC)C(=O)[C@H](C)C[C@H](C)/C=C/C=C/C=C/1C [RAD001, everolimus]
ALL cell lines
  growth inhibition: 50–90%
[1]
  extension of survival vs untreated littermates: ~4 fold
  nodal masses: disappearance of nodal masses
  peripheral WBC counts: normalization of peripheral WBC counts

## CO[C@H]1C[C@@H]2CC[C@@H](C)[C@@](O)(O2)C(=O)C(=O)N2CCCC[C@H]2C(=O)O[C@H]([C@H](C)C[C@@H]2CC[C@@H](O)[C@H](OC)C2)CC(=O)[C@H](C)/C=C(\C)[C@@H](O)[C@@H](OC)C(=O)[C@H](C)C[C@H](C)/C=C/C=C/C=C/1C [rapamycin]
[2]; 21 patients
  discontinuation of drug because of toxicities: 5 patients
[2]; cyclosporine dose not reduced
  hemolytic uremic syndrome developed: 5 patients
[2]; in vivo
  most common side effects: thrombocytopenia and neutropenia, elevated serum triglycerides and cholesterol
[3]; 2 mg/day
  trough concentration: 8.58 ± 4.0 ng/mL
[3]; 5 mg/day
  trough concentration: 17.3 ± 7.4 ng/mL
[3]; human, in vivo
  elimination of the drug via the GI tract: 91%
  metabolism: intestinal and hepatic CYP3A4 enzyme family
[3]; loading dose of 3 times the maintenance dose, most patients
  time to near steady-state concentrations: ≤ 1 days
[3]; healthy subjects
  mean time-to-peak concentration: 1 h
[3]; renal transplant recipients
  mean time-to-peak concentration: 2 h
[3]; patients on rapamycin [MacDonald, 2000]
  typical serum levels of patients: 8 to 12 ng/mL
[3]; pediatric patients 5–11 years
  half-lives: shorter
  oral clearances: greater
[3]; stable renal transplant patients, between 3 and 12 mg/m^2
  dose dependence of concentrations: dose proportional
pro-B ALL cell line T309; 1 ng/ml rapamycin
  cells labeled with Annexin V: 44%
pro-B ALL cell line T309; 100 ng/ml rapamycin
  cells labeled with Annexin V: 51%
[4]; [8]
  inhibition at 0.001 µg/mL: > 40%
  inhibition at 0.1 µg/mL: > 70%
[5]; 5 mg/kg IP daily
  mean hemoglobin and platelet counts, untreated vs rapamycin treated mice: not significantly different
  time to normalization of WBC after instituting therapy: 7 to 10 days
  weights of treated versus untreated groups: not significantly different
[5]; 5 mg/kg IP daily, N=34, untreated 12 days (N=23), p<0.001
  average time from diagnosis to death: 30 days
[5]; 5 mg/kg IP daily, single agent, advanced disease
  extension of survival vs untreated mice: ~3 fold
[5]; after 14 days of rapamycin, WBC 28.8 at presentation
  WBC nadir of the typical mouse of FIG. 8: 3.2
[5]; D0
  Plt, mean: 695000 µL⁻¹
  WBC, mean: 47800 µL⁻¹
  Weight, mean: 25.6 grams
[5]; D7
  Plt, mean: 584000 µL⁻¹
  WBC, mean: 18500 µL⁻¹
[5]; D14
  Weight, mean: 28.1 grams
[5]; at sacrifice
  Plt, mean: 573000 µL⁻¹
  WBC, mean: 31000 µL⁻¹
  Weight, mean: 28.10 grams
[5]; d21
  Plt, mean: 526000 µL⁻¹
  WBC, mean: 14300 µL⁻¹
[6]; adult organ rejection trials, 2 mg or 5 mg daily with cyclosporine and corticosteroids
  major side effects: thrombocytopenia, hypercholesteremia, hypertriglyceridemia, and diarrhea
[6]; pediatric kidney transplantation, with corticosteroids and MMF
  toxicities of CTC Grade III and IV: stomatitis, hypercholesteremia, and hypertriglyceridemia
[6]; single doses ranging from 3–21 mg/m^2
  toxicity in single dosing studies: No toxicity

B1: rmIL-7: recombinant mouse IL-7 (rmIL-7) (Leinco Technologies, Inc.) (protein, UniProt P10168 26-154, looked up)
Interleukin-7: ECHIKDKEGKAYESVLMISIDELDKMTGTDSNCPNNEPNFFRKHVCDDTKEAAFLNRAARKLKQFLKMNISEEFNVHLLTVSQGTQTLVNCTSKEEKNVKEQKKNDACFLKRLLREIKTCWNKILKGSI
A20 mature B cell line
  proliferation: not affected
Cell line #83
  increase in proliferation: ~100 fold
Cell line #420.2
  increase in proliferation: 2.2 fold
Cell line T309
  increase in proliferation: 3.7 fold
YES proto-oncogene
  effect on YES expression in rapamycin-treated cells: completely rescued
ALL cell line #289; increasing rmIL-7 0–30 U/ml, no stroma, 4–5 days
  increase in proliferation: 2.2 fold
ALL cell line #289; rmIL-7 10 U/ml with rapamycin 1 ng/ml, 3 days
  reversal of rapamycin-induced growth inhibition: completely reverses
ALL cell line #289; rmIL-7 10 U/ml with rapamycin 100 ng/ml, 3 days, only partial
  reversal of rapamycin's effect on cell growth: ~80 % of baseline
[7]; 10 U/ml IL-7 + 100 ng/ml rapamycin, listed as IL-7
  effect on rapamycin-induced decrease in phosphor-p70S6 kinase: reversed; also recorded: restored to baseline
[7]; 100 ng/ml rapamycin or 10 U/ml IL-7
  p70S6 kinase total protein levels: unchanged
#781 cell line
  increase in proliferation: 16 fold
[4]; cell lines #83, #781, T309, #289, #420.2
  concentration at which the response appears to plateau: 10–30 U/ml
